Results: patent US5049550A, “Diadenosine 5', 5'"-p^1, p^4,-tetraphosphate analogs as antithrombotic agents” (Worcester Foundation for Experimental Biology, priority 1988, dated 1991)
pKi: −log10 of the molar value. Entries after “also recorded” stand apart in the source; their conditions may differ.

Columns and labels:
[1] = tested on: rabbit platelet aggregation by collagen; assay: Collagen-induced aggregation of rabbit platelets; assay type: cell-based
Procedure: (§1) Rabbit carotid arterial blood was collected in 3.8% sodium citrate (9 volumes blood to 1 volume citrate). Platelet rich plasma (PRP) and platelet poor plasma (PPP) were prepared by centrifugation at 150 g and 1,000 g for 10 minutes respectively. Aggregation studies were performed in a Chrono-Log (Havertown, Pa.) aggregometer with ADP or collagen as aggregating agents. ADP (Sigma Chemical Co.) was used in a final concentration of 2×10^-5 M. Calf skin collagen (Sigma Chemical Co.) was used in a final concentration of 200 ug/ml.
The effect of AP4 A on rabbit platelet aggregation by ADP and collagen was tested. […] The anti-aggregatory effect of AP4 A was detected at a concentration of 2×10^-4 M (tenfold that of ADP) and increased in a dose-response pattern with increasing concentrations (FIG. 1).

[2] = plasma; cited from earlier work
[3] = tested on: ADP induced platelet aggregation; details: in vitro; even when aggregation has progressed to 60% completion; cited from earlier work
[4] = tested on: ADP-induced platelet aggregation; assay: Kinetics of ADP-induced platelet aggregation (double-reciprocal plot); assay type: cell-based; details: FIG. 6
Procedure: Changes in light transmission reflecting the velocity of ADP-induced platelet aggregability was determined using a platelet aggregometer. Born, G.V.P., Nature 184:927-929 (1962). […] The Y points on the X-intercept are altered by factors [formula] where I is the concentration of inhibitor, and Ki is a characteristic constant. Points on the X-intercept are given by the expression [formula] intercept when [I]=0. When [I] is known, the equation can be solved for Ki.

[5] = tested on: aggregation of platelets induced by ADP; assay: ADP-induced aggregation of platelets recovered from AP4 A-infused rabbits; assay type: in vivo, rabbit
Procedure: (§2) After preliminary trials, a standard AP4 A infusion protocol was established as follows: A dose of AP4 A at 50 mg/kg was reconstituted in 10 ml of normal saline and infused by pump at a uniform rate over two hours. Control rabbits received 10 ml of saline alone. The intracarotid cannula was inserted, and the re-establishment of blood flow timed at 15 minutes into the infusion. Upon the completion of infusion at 2 hours, the intracarotid tubing was removed, and its contents flushed out into a petri dish. The presence of a clot or of liquid blood contents was noted.
as §1

[6] = tested on: Intracarotid Artery Thrombosis; assay: Intracarotid cannula arterial thrombosis model in rabbits; assay type: in vivo, rabbit
Procedure: Gurewich, V. and Lipinski, B. Thrombosis Research, 9:101 (1976); Louie, S. and Gurewich, V. Thrombosis Research, 30:323-335 (1983).
(§3) Male, New Zealand white rabbits, weighing 2-2.5 kg., were anesthetized with ketamine hydrochloride (100 mg/kg intramuscularly). AP4 A (Boehringer (100 Mannheim Biochemicals, Indianapolis, Ind.), or saline control was infused via a marginal ear vein. A segment of the left common carotid artery was isolated by vascular clamps. A 1 cm. length of polyethylene tubing (PE-90, Clay Adams, Parsippany, N.Y.) was inserted, secured by silk ligatures, and the blood flow re-established by removing the clamps. Blood was sampled from the right carotid artery for assays of AP4 A and ATP, and for platelet aggregation studies.
as §2
Twenty-five rabbits each were assigned to the experimental group that received AP4 A (50 mg/kg), and the control group that received normal saline alone. The incidence of clot formation in the intracarotid cannula in the two groups was compared by the Chi-Square test.
Initially, twelve rabbits received a constant infusion of E10 over a 2 hour period at a dosage of 100 mg in 10 ml. These intravenous infusions were performed as described above for AP4 A.
In addition, 30 mg of E10 in 3 ml saline was administered as a single injection over a one minute time span at the beginning of the cannulation period.

[7] = Assay of blood AP4 A and ATP before and after AP4 A infusion in rabbits (in vivo); parameters: species or system rabbit
Procedure: as §3, §2
Blood samples were collected from the carotid artery through a catheter before and after (0, 10, 20, 40, and 60 minutes) infusion of AP4 A. Blood was anticoagulated by mixing with 0.15 volume of acid-citrate-dextrose solution. An aliquot of blood collected at the end of AP4 A infusion (to sample) was incubated at 37° C. and sampled at 10, 20, 40, and 60 minutes to evaluate the in vitro decay of AP4 A. Blood samples of […] 3% perchloric acid and kept at 0° C. for 30 minutes with intermittent vortexing. The acid soluble fraction was recovered by centrifugation at 1000 g for 10 minutes and neutralized by 5M K2 CO3. It was then kept at -80° C. until assay of the nucleotides. The AP4 A assay was performed by coupling the phosphodiesterase and luciferase reactions in a luminometer (Model 6100 Picolite, Packard, Downers Grove, Ill.). The detailed method of AP4 A and ATP assays has been reported elsewhere (Kim, B. K., Chao, F. C., Leavitt, R., Fauci, A. S., Meyers, K. M. and Zamecnik, P. C. Blood, 66:735-737, 1985).
The disappearance of infused AP4 A in the circulation and in incubated blood was studied in 2 rabbits. Mean values of hemoglobin, hematocrit and platelet count were 10.1 g/dl, 30.8% and 362,000/ul respectively. The blood content of AP4 A in the rabbits was 51 nmol/1 blood prior to infusion. […] Kim, B. K. et al., Blood, 66:735-737 (1985); Flodgaard, H., Zamecnik, P. C. Meyers, K. and Klenow, H., Thrombosis Research, 37:345-351 (1986). […] A very rapid disappearance of infused AP4 A was observed, with complete clearance within 10 minutes after infusion. When blood samples obtained at the end of AP4 A infusion were incubated at 37° C., only 15-fold and 4-fold levels of AP4 A, as compared to baseline could be detected after 10 minutes and 20 minutes respectively.

[8] = AP4 A 50 mg/kg infused over 2 hours, 25 rabbits
[9] = in vivo, before infusion of AP4 A

With `Nc1ncnc2c1ncn2[C@@H]1O[C@H](COP(=O)(O)OP(=O)(O)OP(=O)(O)OP(=O)(O)OC[C@H]2O[C@@H](n3cnc4c(N)ncnc43)[C@H](O)[C@@H]2O)[C@@H](O)[C@H]1O` [AP4 A, diadenosine 5',5'"-p^1,p^4 -tetraphosphate] the “effect on preformed aggregates caused by collagen” value ([1]; added after aggregation, collagen 200 ug/ml (FIG. 2)) was “no effect”, the “effect on collagen-induced aggregation” value ([1]; added prior to induction, collagen 200 ug/ml (FIG. 3B)) was “inhibiting slightly” and the “effect on collagen-induced platelet aggregation” value ([1]; same dose that almost completely inhibits ADP-induced aggregation) was “little or no effect”. For the same compound, the degradation products [2] was “degraded to AMP and ATP”, the “effect on ADP induced platelet aggregation” value [3] was “competitively inhibits ADP induced platelet aggregation, causing an immediate dispersion of aggregated platelets” and the pKi ([4]; competitive inhibition of ADP-induced aggregation) was 4.77. The “type / relative strength of inhibition” value ([4]; double reciprocal plot) was “competitive inhibition”, the “aggregation of platelets induced by ADP after AP4 A infusion” value ([5]; 50 mg per kg over 2 hours, ADP 2×10^-5 M (FIG. 4)) was “diminished response to ADP-induced aggregation; also recorded: markedly blunted” and the “inhibition of ADP-induced platelet aggregation on administration to a mammal” value ([5]; rabbit, in vivo) was “markedly inhibit ADP-induced platelet aggregation”. The “% CLOTS (incidence of thrombosis)” value [6, 8] was 56%, the “Clot Absent (rabbits)” value [6, 8] was 11 and the “Clot Present (rabbits)” value [6, 8] was 14. The “difference in dimension and weight of clots versus controls” value ([6]; AP4 A 50 mg/kg over 2 hours) was “no significant difference”, the “level of ATP after AP4 A infusion” value ([7]; an initial increment and a late increment) was “bimodal increments” and the “increase of blood AP4 A at the end of infusion” value ([7]; end of infusion) was 125 fold of baseline. The concentration ([7]; end of infusion, 50 mg/kg) was 6400 nM, the “half-life in rabbit blood” value ([7]; in vivo and ex vivo) was “short half-life” and the “ATP, umol/l blood” value ([7]; in vivo, 0 min after infusion of AP4 A (50 mg/kg over 2 h)) was 579.0 umol/l blood. For the same compound, the “ATP, umol/l blood” value ([7]; in vivo, 10 min after infusion of AP4 A (50 mg/kg over 2 h)) was 573.5 umol/l blood, the “ATP, umol/l blood” value ([7]; in vivo, 20 min after infusion of AP4 A (50 mg/kg over 2 h)) was 564.0 umol/l blood and the “ATP, umol/l blood” value ([7]; in vivo, 40 min after infusion of AP4 A (50 mg/kg over 2 h)) was 562.0 umol/l blood. The “ATP, umol/l blood” value ([7]; in vivo, 60 min after infusion of AP4 A (50 mg/kg over 2 h)) was 629.5 umol/l blood, the “AP4 A, umol/l blood” value [7, 9] was 0.051 umol/l blood and the “ATP, umol/l blood” value [7, 9] was 522.9 umol/l blood. The concentration at 0 h ([7]; rabbit, blood, iv, in vivo, 0 min after infusion (50 mg/kg over 2 h), read-out: AP4 A, umol/l blood) was 6.41 µmol/L, the concentration at 10 min ([7]; rabbit, blood, iv, in vivo, 10 min after infusion (50 mg/kg over 2 h), read-out: AP4 A, umol/l blood) was 0.043 µmol/L and the concentration at 20 min ([7]; rabbit, blood, iv, in vivo, 20 min after infusion (50 mg/kg over 2 h), read-out: AP4 A, umol/l blood) was 0.045 µmol/L. For the same compound, the concentration at 40 min ([7]; rabbit, blood, iv, in vivo, 40 min after infusion (50 mg/kg over 2 h), read-out: AP4 A, umol/l blood) was 0.05 µmol/L, the concentration at 1 h ([7]; rabbit, blood, iv, in vivo, 60 min after infusion (50 mg/kg over 2 h), read-out: AP4 A, umol/l blood) was 0.042 µmol/L and the “time to complete clearance after infusion” value ([7]; rabbits, after end of infusion) was at most 10 min. For the same compound, the “blood content of AP4 A prior to infusion” value ([7]; rabbits, prior to infusion) was 51 nmol/1 blood and the “blood content of AP4 A: fold lower than the level observed in man” value ([7]; rabbits, prior to infusion, versus man) was 7.3 fold.
